Laboratory results reported in patent US8779157B2, “MGLUR4 allosteric potentiators, compositions, and methods of treating neurological dysfunction” (Vanderbilt University, priority 2009, dated 2014).

Biological target: mGluR4 (UniProt Q14833)
Assay: mGluR4 potentiation assay (fluorescence, Ca2+ or thallium/GIRK readout; EC20 agonist)
Format: cell-based, human / rat
Conditions: half maximal effective concentration for mGluR4 potentiation; species of receptor not given
Description: The disclosed compounds and compositions can be evaluated for their ability to act as a potentiator of metabotropic glutamate receptor activity, in particular mGluR4 activity, by any suitable known methodology known in the art. For example, Chinese Hamster Ovary (CHO) cells transfected with human mGluR4 or HEK cells co-transfected with rat mGluR4 and the G-protein regulated Inwardly Rectifying Potassium channel (GIRK) were plated in clear bottom assay plates for assay in a Hamamatsu FDSS Fluorometric Plate Reader. The cells were loaded with either a Ca2+-sensitive fluorescent dye or the thallium responsive dye and the plates were washed and placed into a suitable kinetic plate reader. For human mGluR4 assays, a fluorescence baseline was established for 3-5 seconds, the disclosed compounds were then added to the cells, and the response in cells was measured. Approximately two and a half minutes later, a concentration of mGluR4 orthosteric agonist (e.g. glutamate or L-AP4) eliciting approximately 20% (EC20) of the maximal agonist response was added to the cells, and the response was measured. Two minutes later, a concentration of mGluR4 agonist (e.g. glutamate or L-AP4) eliciting 80% (EC80) of the maximal agonist response was added to the cells, and the response was measured. For rat mGluR4/GIRK experiments, a baseline was established for approximately five seconds, disclosed compounds were added, and either an EC20 or EC80 concentration of agonist was added approximately two and one half minutes later. Potentiation of the agonist response of mGluR4 by the disclosed compounds was observed as an increase in response to the EC20 concentration of agonist in the presence of compound compared to the response to agonist in the absence of compound. Similarly, antagonism of the agonist response of mGluR4 by the disclosed compounds was observed as a decrease in response to the EC80 concentration of agonist in the presence of compound compared to the response to agonist in the absence of compound.
The above described assay operated in two modes. In the first mode, a range of concentrations of the disclosed compounds are added to cells, followed by a single fixed concentration of agonist. If the compound acts as a potentiatior, an EC50 value for potentiation and a maximum extent of potentiation by the compound at this concentration of agonist is determined by non-linear curve fitting. If the compound acts as a noncompetitive antagonist, an IC50 value is determined by non-linear curve fitting. In the second mode, several fixed concentrations of the disclosed compounds are added to various wells on a plate, followed by a range in concentrations of agonist for each concentration of disclosed compound. The EC50 values for the agonist at each concentration of compound are determined by non-linear curve fitting. A decrease in the EC50 value of the agonist with increasing concentrations of the sample compound (a leftward shift of the agonist concentration-response curve) is an indication of the degree of mGluR4 potentiation at a given concentration of the sample compound. A decrease in the maximal response of the agonist with increasing concentrations of the sample compounds, with or without a rightward shift in agonist potency, is an indication of the degree of noncompetitive antagonism at mGluR4. The second mode also indicates whether the sample compounds also affect the maximum response to mGluR4 to agonists.

| Structure (SMILES) | EC50 [µM] |
| --- | --- |
| COc1cc(NC(=O)c2ccccn2)ccc1N1C(=O)C2CCCCN2C1=O (stereo not shown) [Example 1.3.1, N-(4-(1,3-dioxotetrahydroimidazo[1,5-a]pyridin-2(1H,3H,5H)-yl)-3-methoxyphenyl)picolinamide] | 2.7 |
| O=C(Nc1ccc(N2C(=O)C3CCCCN3C2=O)cc1)c1ccccn1 (stereo not shown) [Example 1.3.3, N-(4-(1,3-dioxotetrahydroimidazo[1,5-a]pyridin-2(1H,3H,5H)-yl)phenyl)picolinamide] | 3.12 |
| CN1CC(=O)N(c2ccc(NC(=O)c3ccccn3)cc2Cl)C1=O [Example 1.3.11, N-(3-chloro-4-(3-methyl-2,5-dioxoimidazolin-1-yl)phenyl)picolinamide] | 7.06 |
| O=C(Nc1ccc(N2C(=O)NC3(CCCCC3)C2=O)c(Cl)c1)c1ccccn1 [Example 1.3.12, N-(3-chloro-4-(2,4-dioxo-1,3-diazaspiro[4.5]decan-3-yl)phenyl)picolinamide] | 0.229 |
| O=C(Nc1ccc(N2C(=O)NC3(CCCC3)C2=O)c(Cl)c1)c1ccccn1 [Example 1.3.13, N-(3-chloro-4-(2,4-dioxo-1,3-diazaspiro[4.4]nonan-3-yl)phenyl)picolinamide] | 0.795 |
| O=C(Nc1ccc(N2C(=O)NC3(CCC3)C2=O)c(Cl)c1)c1ccccn1 [Example 1.3.14, N-(3-chloro-4-(6,8-dioxo-5,7-diazaspiro[3.4]octan-7-yl)phenyl)picolinamide] | 1.28 |
| O=C(Nc1ccc(N2C(=O)NC3(CCCCCC3)C2=O)c(Cl)c1)c1ccccn1 [Example 1.3.15, N-(3-chloro-4-(2,4-dioxo-1,3-diazaspiro[4.6]undecan-3-yl)phenyl)picolinamide] | 0.222 |
| CC(C)C[C@]1(C)NC(=O)N(c2ccc(NC(=O)c3ccccn3)cc2Cl)C1=O [Example 1.3.16, (S)-N-(3-chloro-4-(4-isobutyl-4-methyl-2,5-dioxoimidazolidin-1-yl)phenyl)picolinamide] | 3.59 |
| CC(C)C[C@@]1(C)NC(=O)N(c2ccc(NC(=O)c3ccccn3)cc2Cl)C1=O [Example 1.3.17, (R)-N-(3-chloro-4-(4-isobutyl-4-methyl-2,5-dioxoimidazolidin-1-yl)phenyl)picolinamide] | 1.5 |
| CC1(C)NC(=O)N(c2ccc(NC(=O)c3ccccn3)cc2Cl)C1=O [Example 1.3.18, N-(3-chloro-4-(4,4-dimethyl-2,5-dioxoimidazolidin-1-yl)phenyl)picolinamide] | 4.21 |
| C[C@]1(Cc2ccccc2)NC(=O)N(c2ccc(NC(=O)c3ccccn3)cc2Cl)C1=O [Example 1.3.19, (R)-N-(4-(4-Benzyl-4-methyl-2,5-dioxoimidazolidin-1-yl)-3-chlorophenyl)picolinamide] | 0.84 |
| C[C@@]1(Cc2ccccc2)NC(=O)N(c2ccc(NC(=O)c3ccccn3)cc2Cl)C1=O [Example 1.3.20, (S)-N-(4-(4-benzyl-4-methyl-2,5-dioxoimidazolidin-1-yl)-3-chlorophenyl)picolinamide] | 0.604 |
| O=C(Nc1ccc(N2C(=O)C3COCCN3C2=O)c(Cl)c1)c1ccccn1 (stereo not shown) [Example 1.3.21, N-(3-Chloro-4-(1,3-dioxodihydro-1H-imidazo[5,1-c][1,4]oxazin-2(3H,8H,8aH)-yl)phenyl)picolinamide] | 2.18 |
| O=C(Nc1ccc(N2C(=O)C3COCCN3C2=O)c(Cl)c1)c1ncccc1F (stereo not shown) [Example 1.3.22, N-(3-Chloro-4-(1,3-dioxodihydro-1H-imidazo[5,1-c][1,4]oxazin-2(3H,8H,8aH)-yl)phenyl)-3-fluoropicolinamide] | 5.82 |
| O=C(Nc1ccc(N2C(=O)C3COCCN3C2=O)c(Cl)c1)c1cccs1 (stereo not shown) [Example 1.3.24, N-(3-Chloro-4-(1,3-dioxodihydro-1H-imidazo[5,1-c][1,4]oxazin-2(3H,8H,8aH)-yl)phenyl)thiophene-2-carboxamide] | 9.5 |
| O=C(Nc1ccc(N2C(=O)C3COCCN3C2=O)c(Cl)c1)c1nccs1 (stereo not shown) [Example 1.3.25, N-(3-Chloro-4-(1,3-dioxodihydro-1H-imidazo[5,1-c][1,4]oxazin-2(3H,8H,8aH)-yl)phenyl)thiazole-2-carboxamide] | 6.32 |
| O=C(Nc1ccc(N2C(=O)C3COCCN3C2=O)c(Cl)c1)c1cscn1 (stereo not shown) [Example 1.3.26, N-(3-Chloro-4-(1,3-dioxodihydro-1H-imidazo[5,1-c][1,4]oxazin-2(3H,8H,8aH)-yl)phenyl)thiazole-4-carboxamide] | 6.11 |
| O=C(Nc1ccc(N2C(=O)C3COCCN3C2=O)c(Cl)c1)c1ncc(F)cc1F (stereo not shown) [Example 1.3.27, N-(3-Chloro-4-(1,3-dioxodihydro-1H-imidazo[5,1-c][1,4]oxazin-2(3H,8H,8aH)-yl)phenyl)-3,5-difluoropicolinamide] | 2.93 |
| O=C(Nc1ccc(N2C(=O)C3COCCN3C2=O)c(Cl)c1)c1ccc(Cl)o1 (stereo not shown) [Example 1.3.28, 5-Chloro-N-(3-chloro-4-(1,3-dioxodihydro-1H-imidazo[5,1-c][1,4]oxazin-2(3H,8H,8aH)-yl)phenyl)furan-2-carboxamide] | 8.77 |
| O=C(Nc1ccc(N2C(=O)C3COCCN3C2=S)c(Cl)c1)c1ccccn1 (stereo not shown) [Example 1.3.30, N-(3-Chloro-4-(1-oxo-3-thioxodihydro-1H-imidazo[5,1-c][1,4]oxazin-2(3H, 8H,8aH)-yl)phenyl)picolinamide] | 1.47 |
| O=C(Nc1ccc(N2C(=O)C3COCCN3C2=S)c(Cl)c1)c1cnccn1 (stereo not shown) [Example 1.3.31, N-(3-Chloro-4-(1-oxo-3-thioxodihydro-1H-imidazo[5,1-c][1,4]oxazin-2(3H,8H,8aH)-yl)phenyl)pyrazine-2-carboxamide] | 3.56 |

Next, values leading:

| EC50 [µM] | Structure (SMILES) |
| --- | --- |
| 0.814 | O=C(Nc1ccc(N2C(=O)C3CCCCN3C2=O)c(Cl)c1)c1ccccn1 (stereo not shown) [Example 1.3.2, N-(3-chloro-4-(1,3-dioxotetrahydroimidazo[1,5-a]pyridin-2(1H,3H,5H)-yl)phenyl)picolinamide] |
| 1.67 | O=C(Nc1ccc(N2C(=O)C3CCCCN3C2=O)c(Cl)c1)c1cccc(F)n1 (stereo not shown) [Example 1.3.4, N-(3-Chloro-4-(1,3-dioxotetrahydroimidazo[1,5-a]pyridin-2(1H,3H,5H)-yl)phenyl)-6-fluoropicolinamide] |
| 1.98 | O=C(Nc1ccc(N2C(=O)C3CCCCN3C2=O)c(Cl)c1)c1cscn1 (stereo not shown) [Example 1.3.5, N-(3-Chloro-4-(1,3-dioxotetrahydroimidazo[1,5-a]pyridin-2(1H,3H,5H)-yl)phenyl)thiazole-4-carboxamide] |
| 2.58 | O=C(Nc1ccc(N2C(=O)C3CCCCN3C2=O)c(Cl)c1)c1ccncn1 (stereo not shown) [Example 1.3.6, N-(3-Chloro-4-(1,3-dioxotetrahydroimidazo[1,5-a]pyridin-2(1H,3H,5H)-yl)phenyl)pyrimidine-4-carboxamide] |
| 3.31 | O=C(Nc1ccc(N2C(=O)C3CCCCN3C2=O)c(Cl)c1)c1ncccc1F (stereo not shown) [Example 1.3.7, N-(3-Chloro-4-(1,3-dioxotetrahydroimidazo[1,5-a]pyridin-2(1H,3H,5H)-yl)phenyl)-3-fluoropicolinamide] |
| 6.2 | O=C(Nc1ccc(N2C(=O)C3CCCCN3C2=O)c(Cl)c1)c1ccc(Cl)o1 (stereo not shown) [Example 1.3.8, 5-Chloro-N-(3-chloro-4-(1,3-dioxotetrahydroimidazo[1,5-a]pyridin-2(1H,3H,5H)-yl)phenyl)furan-2-carboxamide] |
| 2.11 | O=C(Nc1ccc(N2C(=O)C3CCCN3C2=O)c(Cl)c1)c1ccccn1 (stereo not shown) [Example 1.3.9, N-(3-chloro-4-(1,3-dioxo-1H-pyrrolo[1,2-c]imidazol-2(3H,5H,6H,7H,7aH)-yl)phenyl)picolinamide] |
| 0.367 | O=C(Nc1ccc(N2C(=O)C3CCCCN3C2=S)c(Cl)c1)c1ccccn1 (stereo not shown) [Example 1.3.10] |
| 4.83 | O=C(Nc1ccc(N2C(=O)C3COCCN3C2=O)c(Cl)c1)c1cccc(Cl)n1 (stereo not shown) [Example 1.3.23, 6-Chloro-N-(3-chloro-4-(1,3-dioxodihydro-1H-imidazo[5,1-c][1,4]oxazin-2(3H,8H,8aH)-yl)phenyl)picolinamide] |
| 6.73 | O=C(Nc1ccc(N2C(=O)C3COCCN3C2=O)c(Cl)c1)c1cccc(F)n1 (stereo not shown) [Example 1.3.29, N-(3-Chloro-4-(1,3-dioxodihydro-1H-imidazo[5,1-c][1,4]oxazin-2(3H,8H,8aH)-yl)phenyl)-6-fluoropicolinamide] |
